Measured values published in PMC4669708 (Cell Death & Disease, 2015).

Assays:
Test in all cases: c-ponatinib pulldown LC-MS/MS
Format in all cases: binding
[1] = biological target: T1, CCT4 (Homo sapiens, UniProt P50991)
T1 sequence (P50991 1-539): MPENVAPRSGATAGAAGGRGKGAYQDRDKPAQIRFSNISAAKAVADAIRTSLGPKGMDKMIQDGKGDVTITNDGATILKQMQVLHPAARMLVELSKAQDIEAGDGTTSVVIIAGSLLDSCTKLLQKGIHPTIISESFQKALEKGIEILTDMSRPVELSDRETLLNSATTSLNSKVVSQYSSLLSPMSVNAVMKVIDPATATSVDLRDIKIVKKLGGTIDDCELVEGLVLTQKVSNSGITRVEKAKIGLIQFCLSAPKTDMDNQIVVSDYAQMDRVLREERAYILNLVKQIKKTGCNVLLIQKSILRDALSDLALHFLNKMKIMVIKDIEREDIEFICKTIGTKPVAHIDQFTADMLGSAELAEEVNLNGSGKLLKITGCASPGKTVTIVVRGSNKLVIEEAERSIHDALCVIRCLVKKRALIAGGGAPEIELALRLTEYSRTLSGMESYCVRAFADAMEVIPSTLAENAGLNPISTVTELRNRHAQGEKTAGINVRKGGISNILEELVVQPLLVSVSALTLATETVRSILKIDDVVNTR
Description: (§1) Drug-affinity matrices were prepared as described previously.[51] In brief, 25 nmol of c-ponatinib were immobilized on 50 μl NHS-activated Sepharose 4 Fast Flow beads (GE Healthcare Bio-Sciences AB, Uppsala, Sweden). 10 mg whole cell lysate was used as protein input per replicate. Affinity chromatography and elution were performed in duplicate. After elution, the enriched proteins were reduced with dithiothreitol (DTT) and cysteine residues were alkylated by incubation with iodoacetamide. The samples were digested with modified porcine trypsin (Promega). Five percent of the digested eluates were purified and concentrated by C18 reversed-phase material. Subsequently, samples were analyzed in duplicates by gel-free one-dimensional LCMS.
(§2) Precursor and MS/MS peaks were extracted from the RAW files and saved in the MGF format using msconvert tool (ProteoWizard Library v2.1.2708, www.proteowizard.sourceforge.net) for subsequent protein identification. An initial database search was performed with broader mass tolerance and conservative score threshold to re-calibrate the mass lists for optimal final protein identification. For the initial protein database search, Mascot (www.matrixscience.com, v2.3.02) was used. Error tolerances on the precursor and fragment ions were ±10 p.p.m. and ±0.6 Da, respectively, and the database search limited to fully-tryptic peptides with maximum one missed cleavage, carbamidomethyl cysteine and methionine oxidation set as fixed and variable modifications, respectively. The Mascot peptide ion score threshold was set to 30, and at least three peptide identifications per protein were required. Searches were performed against the human UniProtKB/SwissProt database (www.uniprot.org release 2013.01) including all protein isoforms. The initial peptide identifications were used to deduce independent linear transformations for precursor and fragment masses that would minimize the mean square deviation of measured masses from theoretical. Re-calibrated mass list files were searched against the same human protein database by a combination of Mascot and Phenyx (GeneBio SA, Geneva, Switzerland; version 2.5.14) search engines using narrower mass tolerances (±4 p.p.m. and ±0.3 Da). One missed tryptic cleavage site was allowed. Carbamidomethyl cysteine was set as a fixed modification and oxidized methionine was set as a variable modification. To validate the proteins, Mascot and Phenyx output files were processed by internally developed parsers. Proteins with ≥2 unique peptides above a score T1, or with a single peptide above a score T2 were selected as unambiguous identifications. Additional peptides for these validated proteins with score >T3 were also accepted. For Mascot searches, the following thresholds were used: T1=14, T2=40 and T3=10; Phenyx thresholds were set to 4.2, 4.75 and 3.5, respectively (P-value<10^−3). The validated proteins retrieved by the two algorithms were merged, any spectral conflicts discarded and grouped according to shared peptides. A false discovery rate of <1% for protein identifications and <0.1% for peptides (including the ones exported with lower scores) was determined by applying the same procedure against a database of reversed protein sequences. […] In addition to Mascot protein scores that were proposed as an estimate of protein abundance by the original algorithm, the modified version also included Phenyx protein scores and spectral counts. The algorithm first estimated three measure-specific P-values for each putative interaction, and, in contrast to,[69] P-value calculation utilized the quantiles of the measurements rather than the original data. The Fisher's method was used to combine the three resulting P-values into a single P-value for drug–protein interaction specificity. We have also correlated interaction P-values with the magnitude of competition effect represented by the fold reduction of spectral counts on free compound competition. […]

[2] = biological target: LCK (Homo sapiens, UniProt P06239)
Chain of LCK (P06239 whole entry): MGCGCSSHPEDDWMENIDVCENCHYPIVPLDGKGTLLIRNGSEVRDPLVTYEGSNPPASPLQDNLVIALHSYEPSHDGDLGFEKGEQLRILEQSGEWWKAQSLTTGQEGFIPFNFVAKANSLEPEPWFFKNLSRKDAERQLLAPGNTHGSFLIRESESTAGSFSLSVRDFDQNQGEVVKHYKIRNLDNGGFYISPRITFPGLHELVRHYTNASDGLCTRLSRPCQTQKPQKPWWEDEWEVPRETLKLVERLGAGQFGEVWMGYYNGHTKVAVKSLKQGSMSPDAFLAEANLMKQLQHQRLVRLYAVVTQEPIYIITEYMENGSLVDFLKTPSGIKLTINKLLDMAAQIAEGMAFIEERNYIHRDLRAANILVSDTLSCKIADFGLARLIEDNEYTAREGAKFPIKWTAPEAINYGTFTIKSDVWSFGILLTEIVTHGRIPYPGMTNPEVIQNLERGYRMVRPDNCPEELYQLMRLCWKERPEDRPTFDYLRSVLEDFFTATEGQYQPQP
Description: as §1, §2

[3] = biological target: T2, TAOK3 (Homo sapiens, UniProt Q9H2K8)
T2 sequence (Q9H2K8 1-898): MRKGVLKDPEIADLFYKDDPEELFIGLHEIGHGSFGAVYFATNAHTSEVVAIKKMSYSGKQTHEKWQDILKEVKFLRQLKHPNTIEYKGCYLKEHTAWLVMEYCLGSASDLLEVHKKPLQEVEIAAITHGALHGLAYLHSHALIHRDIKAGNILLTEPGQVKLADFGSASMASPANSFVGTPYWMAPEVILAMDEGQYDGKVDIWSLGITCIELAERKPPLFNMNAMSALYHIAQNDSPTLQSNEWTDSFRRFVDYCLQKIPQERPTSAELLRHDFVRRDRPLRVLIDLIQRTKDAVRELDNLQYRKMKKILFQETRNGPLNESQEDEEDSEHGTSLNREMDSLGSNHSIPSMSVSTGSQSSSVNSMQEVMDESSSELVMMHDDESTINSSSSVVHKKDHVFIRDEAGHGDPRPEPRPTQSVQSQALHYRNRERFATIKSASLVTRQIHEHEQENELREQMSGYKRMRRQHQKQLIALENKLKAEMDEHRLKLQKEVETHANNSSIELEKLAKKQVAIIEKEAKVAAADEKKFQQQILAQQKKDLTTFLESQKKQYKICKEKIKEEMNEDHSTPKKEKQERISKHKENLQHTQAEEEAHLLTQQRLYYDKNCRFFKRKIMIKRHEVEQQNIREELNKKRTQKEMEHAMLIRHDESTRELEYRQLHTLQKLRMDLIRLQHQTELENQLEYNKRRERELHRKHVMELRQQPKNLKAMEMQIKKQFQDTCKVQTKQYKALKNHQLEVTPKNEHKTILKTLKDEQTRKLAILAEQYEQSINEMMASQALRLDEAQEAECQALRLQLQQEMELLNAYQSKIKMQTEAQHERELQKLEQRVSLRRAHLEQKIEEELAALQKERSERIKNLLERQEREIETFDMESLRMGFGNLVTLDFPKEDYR
Description: as §1, §2

[4] = biological target: MAPKAPK3 (Homo sapiens, UniProt Q16644)
Chain of MAPKAPK3 (Q16644 whole entry): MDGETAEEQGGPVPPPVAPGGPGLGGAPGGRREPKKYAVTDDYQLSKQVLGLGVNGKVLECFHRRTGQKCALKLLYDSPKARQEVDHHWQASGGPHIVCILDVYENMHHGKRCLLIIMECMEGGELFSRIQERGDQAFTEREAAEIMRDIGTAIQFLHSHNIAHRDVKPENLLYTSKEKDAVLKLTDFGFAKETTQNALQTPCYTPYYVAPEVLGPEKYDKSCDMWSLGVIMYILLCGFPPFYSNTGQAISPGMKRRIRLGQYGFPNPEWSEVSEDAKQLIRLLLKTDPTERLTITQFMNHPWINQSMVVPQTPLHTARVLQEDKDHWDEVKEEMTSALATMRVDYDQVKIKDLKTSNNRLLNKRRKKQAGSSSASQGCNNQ
Description: as §1, §2

Compound: Cc1ccc(C(=O)Nc2ccc(CN3CCN(CCCN)CC3)c(C(F)(F)F)c2)cc1C#Cc1cnc2cccnn12 [c-ponatinib]
- Av. SC comp. ([1]; + free ponatinib): 0
- Total SC comp. ([1]; + free ponatinib): 0
- Av. SC ([1]; no competitor): 3.5
- Total SC ([1]; no competitor): 14
- Av. SC comp. ([2]; + free ponatinib): 0.75
- Total SC comp. ([2]; + free ponatinib): 3
- Av. SC ([2]; no competitor): 98.5
- Total SC ([2]; no competitor): 394
- Av. SC comp. ([3]; + free ponatinib): 2
- Total SC comp. ([3]; + free ponatinib): 8
- Av. SC ([3]; no competitor): 13
- Total SC ([3]; no competitor): 52
- Av. SC comp. ([4]; + free ponatinib): 0
- Total SC comp. ([4]; + free ponatinib): 0
- Av. SC ([4]; no competitor): 10.5
- Total SC ([4]; no competitor): 42
